Laboratory results: patent US8952024B2, “Herbicidal pyrimidone derivatives” (E I du Pont de Nemours and Company, priority 2009, dated 2015)

Columns and labels:
Format in all cases: in vivo
[1] = test system: pigweed (Amaranthus retroflexus); assay: Test A pre-/postemergence plant response
Text: (§1) Seeds of barnyardgrass (Echinochloa crus-galli), large crabgrass (Digitaria sanguinalis), giant foxtail (Setaria faberii), morningglory (Ipomoea spp.), pigweed (Amaranthus retroflexus), velvetleaf (Abutilon theophrasti), wheat (Triticum aestivum) and corn (Zea mays) were planted into a blend of loam soil and sand and treated preemergence with a directed soil spray using test chemicals formulated in a non-phytotoxic solvent mixture which included a surfactant. At the same time these species were also treated with postemergence applications of test compounds formulated in the same manner.
(§2) Plants ranged in height from two to ten cm and were in the one- to two-leaf stage for the postemergence treatment. Treated plants and untreated controls were maintained in a greenhouse for approximately ten days, after which time all treated plants were compared to untreated controls and visually evaluated for injury. Plant response ratings, summarized in Table A, are based on a 0 to 100 scale where 0 is no effect and 100 is complete control. A dash (-) response means no test result.

[2] = test system: wheat (Triticum aestivum); assay: Test A pre-/postemergence plant response
Text: as §1, §2

[3] = test system: giant foxtail (Setaria faberii); assay: Test A pre-/postemergence plant response
Text: as §1, §2

[4] = test system: morningglory (Ipomoea spp.); assay: Test A pre-/postemergence plant response
Text: as §1, §2

[5] = test system: barnyardgrass (Echinochloa crus-galli); assay: Test A pre-/postemergence plant response
Text: as §1, §2

[6] = test system: velvetleaf (Abutilon theophrasti); assay: Test A pre-/postemergence plant response
Text: as §1, §2

corn (Zea mays) = assay: Test A pre-/postemergence plant response
Text: as §1, §2

[7] = test system: large crabgrass (Digitaria sanguinalis); assay: Test A pre-/postemergence plant response
Text: as §1, §2

[8] = test system: ducksalad (Heteranthera limosa); assay: Test B flooded paddy test; conditions: for Plant response rating, Flood, Ducksalad: 250 g ai/ha, flooded paddy test, visual rating on 0 to 100 scale (0 no effect, 100 complete control) after 13 to 15 days; for Plant response rating, Ducksalad: Flood (flooded paddy test), 13 to 15 days
Method in brief: (§3)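 Ratings are visual, 0–100 (100 = complete control), taken versus untreated controls 13 to 15 days after treatment in the greenhouse. Compound went straight into paddy water held 3 cm above soil, applied to 2-leaf-stage plants of four species.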

[9] = test system: barnyardgrass (Echinochloa crus-galli); assay: Test B flooded paddy test; conditions: for Plant response rating, Flood, Barnyardgrass: 250 g ai/ha, flooded paddy test, visual rating on 0 to 100 scale (0 no effect, 100 complete control) after 13 to 15 days; for Plant response rating, Barnyardgrass: Flood (flooded paddy test), 13 to 15 days
Method in brief: as §3

rice (Oryza sativa) = assay: Test B flooded paddy test; conditions: for Plant response rating, Flood, Rice: 250 g ai/ha, flooded paddy test, visual rating on 0 to 100 scale (0 no effect, 100 complete control) after 13 to 15 days; for Plant response rating, Rice: Flood (flooded paddy test), 13 to 15 days
Method in brief: as §3

[10] = test system: umbrella sedge (Cyperus difformis); assay: Test B flooded paddy test; conditions: for Plant response rating, Flood, Sedge, Umbrella: 250 g ai/ha, flooded paddy test, visual rating on 0 to 100 scale (0 no effect, 100 complete control) after 13 to 15 days; for Plant response rating, Sedge, Umbrella: Flood (flooded paddy test), 13 to 15 days
Method in brief: as §3

[11] = Postemergence, 125 g ai/ha, 0 to 100 scale where 0 is no effect and 100 is complete control
[12] = Postemergence, 500 g ai/ha, 0 to 100 scale, 0 = no effect, 100 = complete control, approx. ten days
[13] = Preemergence, 125 g ai/ha, 0 to 100 scale, 0 = no effect, 100 = complete control
[14] = Preemergence, 500 g ai/ha, visual injury, 0 to 100 scale (0 no effect, 100 complete control), approx. ten days
[15] = 62 g ai/ha, scale of 0 to 100 where 0 is no effect and 100 is complete control
[16] = 125 g ai/ha, scale 0 to 100, 0 is no effect, 100 is complete control
[17] = Flood, 31 g ai/ha, scale 0 to 100 (0 no effect, 100 complete control)

## Cc1cc(-n2c(-c3cccc(Br)c3)ncc(C(=O)C3=C(O)CCCC3=O)c2=O)ccc1F [Compound 132]
[1]; [11]
  Plant response rating, Pigweed: 60
[1]; [12]
  Plant response rating, Pigweed: 90
[1]; [13]
  Plant response rating, Pigweed: 10
[1]; [14]
  Plant response rating, Pigweed: 80
[2]; [11]
  Plant response rating, Wheat: 0
[2]; [12]
  Plant response rating, Wheat: 30
[2]; [13]
  Plant response rating, Wheat: 0
[2]; [14]
  Plant response rating, Wheat: 10
[3]; [11]
  Plant response rating, Foxtail, Giant: 0
[3]; [12]
  Plant response rating, Foxtail, Giant: 70
[3]; [13]
  Plant response rating, Foxtail, Giant: 20
[3]; [14]
  Plant response rating, Foxtail, Giant: 90
[4]; [11]
  Plant response rating, Morningglory: 90
[4]; [12]
  Plant response rating, Morningglory: 90
[4]; [13]
  Plant response rating, Morningglory: 0
[4]; [14]
  Plant response rating, Morningglory: 30
[5]; [11]
  Plant response rating, Barnyardgrass: 10
[5]; [12]
  Plant response rating, Barnyardgrass: 90
[5]; [13]
  Plant response rating, Barnyardgrass: 10
[5]; [14]
  Plant response rating, Barnyardgrass: 100
[6]; [11]
  Plant response rating, Velvetleaf: 100
[6]; [12]
  Plant response rating, Velvetleaf: 100
[6]; [13]
  Plant response rating, Velvetleaf: 50
[6]; [14]
  Plant response rating, Velvetleaf: 80
Corn (Zea mays); [11]
  Plant response rating, Corn: 0
Corn (Zea mays); [12]
  Plant response rating, Corn: 40
Corn (Zea mays); [13]
  Plant response rating, Corn: 0
Corn (Zea mays); [14]
  Plant response rating, Corn: 20
[7]; [11]
  Plant response rating, Crabgrass, Large: 20
[7]; [12]
  Plant response rating, Crabgrass, Large: 70
[7]; [13]
  Plant response rating, Crabgrass, Large: 50
[7]; [14]
  Plant response rating, Crabgrass, Large: 100
[8]
  Plant response rating, Flood, Ducksalad: 100
[8]; [15]
  Plant response rating, Ducksalad: 50
[8]; [16]
  Plant response rating, Ducksalad: 80
[8]; [17]
  Ducksalad plant response rating: 0
[9]
  Plant response rating, Flood, Barnyardgrass: 30
[9]; [15]
  Plant response rating, Barnyardgrass: 0
[9]; [16]
  Plant response rating, Barnyardgrass: 0
[9]; [17]
  Barnyardgrass plant response rating: 0
Rice (Oryza sativa)
  Plant response rating, Flood, Rice: 0
Rice (Oryza sativa); [15]
  Plant response rating, Rice: 0
Rice (Oryza sativa); [16]
  Plant response rating, Rice: 0
Rice (Oryza sativa); [17]
  Rice plant response rating: 0
[10]
  Plant response rating, Flood, Sedge, Umbrella: 100
[10]; [15]
  Plant response rating, Sedge, Umbrella: 0
[10]; [16]
  Plant response rating, Sedge, Umbrella: 60
[10]; [17]
  Sedge, Umbrella plant response rating: 0

## CCCn1c(-c2ccc(Br)cc2)ncc(C(=O)C2=C(O)CCCC2=O)c1=O [Compound 134]
[1]; [11]
  Plant response rating, Pigweed: 70
[1]; [12]
  Plant response rating, Pigweed: 80
[1]; [13]
  Plant response rating, Pigweed: 0
[1]; [14]
  Plant response rating, Pigweed: 60
[2]; [11]
  Plant response rating, Wheat: 0
[2]; [12]
  Plant response rating, Wheat: 0
[2]; [13]
  Plant response rating, Wheat: 0
[2]; [14]
  Plant response rating, Wheat: 0
[3]; [11]
  Plant response rating, Foxtail, Giant: 40
[3]; [12]
  Plant response rating, Foxtail, Giant: 70
[3]; [13]
  Plant response rating, Foxtail, Giant: 0
[3]; [14]
  Plant response rating, Foxtail, Giant: 30
[4]; [11]
  Plant response rating, Morningglory: 0
[4]; [12]
  Plant response rating, Morningglory: 60
[4]; [14]
  Plant response rating, Morningglory: 30
[5]; [11]
  Plant response rating, Barnyardgrass: 10
[5]; [12]
  Plant response rating, Barnyardgrass: 60
[5]; [13]
  Plant response rating, Barnyardgrass: 0
[5]; [14]
  Plant response rating, Barnyardgrass: 10
[6]; [11]
  Plant response rating, Velvetleaf: 100
[6]; [12]
  Plant response rating, Velvetleaf: 100
[6]; [13]
  Plant response rating, Velvetleaf: 70
[6]; [14]
  Plant response rating, Velvetleaf: 70
Corn (Zea mays); [11]
  Plant response rating, Corn: 0
Corn (Zea mays); [12]
  Plant response rating, Corn: 20
Corn (Zea mays); [13]
  Plant response rating, Corn: 0
Corn (Zea mays); [14]
  Plant response rating, Corn: 0
[7]; [11]
  Plant response rating, Crabgrass, Large: 50
[7]; [12]
  Plant response rating, Crabgrass, Large: 80
[7]; [13]
  Plant response rating, Crabgrass, Large: 0
[7]; [14]
  Plant response rating, Crabgrass, Large: 30
[8]
  Plant response rating, Flood, Ducksalad: 0
[8]; [15]
  Plant response rating, Ducksalad: 0
[9]
  Plant response rating, Flood, Barnyardgrass: 0
[9]; [15]
  Plant response rating, Barnyardgrass: 0
Rice (Oryza sativa)
  Plant response rating, Flood, Rice: 0
Rice (Oryza sativa); [15]
  Plant response rating, Rice: 0
[10]
  Plant response rating, Flood, Sedge, Umbrella: 0
[10]; [15]
  Plant response rating, Sedge, Umbrella: 0

## CCCn1c(-c2ccn(C)n2)ncc(C(=O)C2=C(O)CCCC2=O)c1=O [Compound 135]
[1]; [11]
  Plant response rating, Pigweed: 80
[1]; [12]
  Plant response rating, Pigweed: 90
[1]; [13]
  Plant response rating, Pigweed: 40
[1]; [14]
  Plant response rating, Pigweed: 80
[2]; [11]
  Plant response rating, Wheat: 0
[2]; [12]
  Plant response rating, Wheat: 0
[2]; [13]
  Plant response rating, Wheat: 0
[2]; [14]
  Plant response rating, Wheat: 0
[3]; [11]
  Plant response rating, Foxtail, Giant: 0
[3]; [12]
  Plant response rating, Foxtail, Giant: 0
[3]; [13]
  Plant response rating, Foxtail, Giant: 0
[3]; [14]
  Plant response rating, Foxtail, Giant: 0
[4]; [11]
  Plant response rating, Morningglory: 70
[4]; [12]
  Plant response rating, Morningglory: 90
[4]; [13]
  Plant response rating, Morningglory: 20
[4]; [14]
  Plant response rating, Morningglory: 50
[5]; [11]
  Plant response rating, Barnyardgrass: 10
[5]; [12]
  Plant response rating, Barnyardgrass: 30
[5]; [13]
  Plant response rating, Barnyardgrass: 0
[5]; [14]
  Plant response rating, Barnyardgrass: 0
[6]; [11]
  Plant response rating, Velvetleaf: 100
[6]; [12]
  Plant response rating, Velvetleaf: 100
[6]; [13]
  Plant response rating, Velvetleaf: 40
[6]; [14]
  Plant response rating, Velvetleaf: 70
Corn (Zea mays); [11]
  Plant response rating, Corn: 0
Corn (Zea mays); [12]
  Plant response rating, Corn: 0
Corn (Zea mays); [13]
  Plant response rating, Corn: 0
Corn (Zea mays); [14]
  Plant response rating, Corn: 0
[7]; [11]
  Plant response rating, Crabgrass, Large: 40
[7]; [12]
  Plant response rating, Crabgrass, Large: 70
[7]; [13]
  Plant response rating, Crabgrass, Large: 0
[7]; [14]
  Plant response rating, Crabgrass, Large: 40
[8]
  Plant response rating, Flood, Ducksalad: 40
[8]; [15]
  Plant response rating, Ducksalad: 30
[9]
  Plant response rating, Flood, Barnyardgrass: 0
[9]; [15]
  Plant response rating, Barnyardgrass: 0
Rice (Oryza sativa)
  Plant response rating, Flood, Rice: 0
Rice (Oryza sativa); [15]
  Plant response rating, Rice: 0
[10]
  Plant response rating, Flood, Sedge, Umbrella: 0
[10]; [15]
  Plant response rating, Sedge, Umbrella: 0

## COCCn1c(-c2ccn(C)n2)ncc(C(=O)C2=C(O)CCCC2=O)c1=O [Compound 136]
[1]; [11]
  Plant response rating, Pigweed: 80
[1]; [12]
  Plant response rating, Pigweed: 100
[1]; [13]
  Plant response rating, Pigweed: 80
[1]; [14]
  Plant response rating, Pigweed: 100
[2]; [11]
  Plant response rating, Wheat: 0
[2]; [12]
  Plant response rating, Wheat: 0
[2]; [13]
  Plant response rating, Wheat: 0
[2]; [14]
  Plant response rating, Wheat: 0
[3]; [11]
  Plant response rating, Foxtail, Giant: 30
[3]; [12]
  Plant response rating, Foxtail, Giant: 50
[3]; [13]
  Plant response rating, Foxtail, Giant: 0
[3]; [14]
  Plant response rating, Foxtail, Giant: 0
[4]; [11]
  Plant response rating, Morningglory: 100
[4]; [12]
  Plant response rating, Morningglory: 100
[4]; [13]
  Plant response rating, Morningglory: 30
[4]; [14]
  Plant response rating, Morningglory: 60
[5]; [11]
  Plant response rating, Barnyardgrass: 30
[5]; [12]
  Plant response rating, Barnyardgrass: 80
[5]; [13]
  Plant response rating, Barnyardgrass: 0
[5]; [14]
  Plant response rating, Barnyardgrass: 60
[6]; [11]
  Plant response rating, Velvetleaf: 100
[6]; [12]
  Plant response rating, Velvetleaf: 100
[6]; [13]
  Plant response rating, Velvetleaf: 70
[6]; [14]
  Plant response rating, Velvetleaf: 100
Corn (Zea mays); [11]
  Plant response rating, Corn: 0
Corn (Zea mays); [12]
  Plant response rating, Corn: 0
Corn (Zea mays); [13]
  Plant response rating, Corn: 0
Corn (Zea mays); [14]
  Plant response rating, Corn: 0
[7]; [11]
  Plant response rating, Crabgrass, Large: 80
[7]; [12]
  Plant response rating, Crabgrass, Large: 90
[7]; [13]
  Plant response rating, Crabgrass, Large: 20
[7]; [14]
  Plant response rating, Crabgrass, Large: 60
[8]
  Plant response rating, Flood, Ducksalad: 75
[8]; [15]
  Plant response rating, Ducksalad: 55
[9]
  Plant response rating, Flood, Barnyardgrass: 25
[9]; [15]
  Plant response rating, Barnyardgrass: 20
Rice (Oryza sativa)
  Plant response rating, Flood, Rice: 20
Rice (Oryza sativa); [15]
  Plant response rating, Rice: 15
[10]
  Plant response rating, Flood, Sedge, Umbrella: 50
[10]; [15]
  Plant response rating, Sedge, Umbrella: 45
